Holding throughout (format): biochemical
One experiment has as its target T1, JAK1 (Homo sapiens, UniProt P23458).
T1 construct: 5 μl of catalytic domain recombinant Kinase enzyme+Tyr peptide substrate (Invitrogen, Calif.); purchased Invitrogen
Description: Z'-LYTE kinase assay, JAK1 tyrosine phosphorylation activity. The settings on record: read-out: JAK 1 IC50. Put shortly:
(§1)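 Catalytic-domain recombinant enzymes phosphorylate a coumarin/fluorescein-labelled Tyr6 peptide for 1 h at room temperature in the presence of ATP and compound (1% DMSO). Development Reagent then cleaves non-phosphorylated peptide over 1 h, and emission ratio 445/520 nm (ex 400 nm) gives percent phosphorylation; IC50 by 4-parameter logistic model.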

In the next experiment the target is T2, JAK2 (Homo sapiens, UniProt O60674).
T2 construct: 5 μl of catalytic domain recombinant Kinase enzyme+Tyr peptide substrate (Invitrogen, Calif.); purchased Invitrogen
The experiment in a line: Z'-LYTE kinase assay, JAK2 tyrosine phosphorylation activity. Put shortly: as §1

The target in the next experiment is T3, JAK3 (Homo sapiens, UniProt P52333).
T3 construct: 5 μl of catalytic domain recombinant Kinase enzyme+Tyr peptide substrate (Invitrogen, Calif.); purchased Invitrogen
Description: Z'-LYTE kinase assay, JAK3 tyrosine phosphorylation activity. Put shortly: as §1

The next experiment has as its target T4, TYK2 (Homo sapiens, UniProt P29597).
T4 construct: 5 μl of catalytic domain recombinant Kinase enzyme+Tyr peptide substrate (Invitrogen, Calif.); purchased Invitrogen
T4 sequence (P29597 897-1176 limits assumed): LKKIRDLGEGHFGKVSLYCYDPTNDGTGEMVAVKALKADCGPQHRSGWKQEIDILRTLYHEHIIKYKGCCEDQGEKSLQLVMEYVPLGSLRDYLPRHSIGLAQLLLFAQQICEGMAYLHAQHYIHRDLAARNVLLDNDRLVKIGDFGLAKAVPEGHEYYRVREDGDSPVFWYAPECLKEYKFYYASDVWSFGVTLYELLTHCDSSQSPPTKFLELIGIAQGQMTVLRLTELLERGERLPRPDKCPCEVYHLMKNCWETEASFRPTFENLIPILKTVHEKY
Description: Z'-LYTE kinase assay, TYK2 tyrosine phosphorylation activity. Put shortly:
as §1

The target of a further experiment is Syk (Homo sapiens, UniProt P43405). The experiment in a line: Syk IC50 (Table 1; method not given).

These results are taken from US8853230B2, “Inhibitors of JAK” (Portola Pharmaceuticals, Inc., priority 2009, dated 2014).

pIC50: −log10 of the molar value.

T2 sequence (O60674 849-1124 limits assumed): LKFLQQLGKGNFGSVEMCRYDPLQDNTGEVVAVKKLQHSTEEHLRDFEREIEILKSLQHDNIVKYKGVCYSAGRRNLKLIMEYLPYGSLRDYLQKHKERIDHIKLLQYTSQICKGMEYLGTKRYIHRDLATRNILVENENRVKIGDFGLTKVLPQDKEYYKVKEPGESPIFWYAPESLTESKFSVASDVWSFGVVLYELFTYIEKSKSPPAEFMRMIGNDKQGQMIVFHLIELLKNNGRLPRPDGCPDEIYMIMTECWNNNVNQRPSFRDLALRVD
T1 sequence (P23458 875-1153 limits assumed): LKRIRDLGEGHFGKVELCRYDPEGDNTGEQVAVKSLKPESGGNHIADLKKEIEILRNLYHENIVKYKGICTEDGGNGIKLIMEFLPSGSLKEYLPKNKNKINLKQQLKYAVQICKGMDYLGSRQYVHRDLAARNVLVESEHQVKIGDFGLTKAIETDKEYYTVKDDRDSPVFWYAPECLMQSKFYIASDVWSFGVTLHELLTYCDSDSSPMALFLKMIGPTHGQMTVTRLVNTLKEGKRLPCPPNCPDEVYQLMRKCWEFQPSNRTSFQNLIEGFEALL
T3 sequence (P52333 822-1111 limits assumed): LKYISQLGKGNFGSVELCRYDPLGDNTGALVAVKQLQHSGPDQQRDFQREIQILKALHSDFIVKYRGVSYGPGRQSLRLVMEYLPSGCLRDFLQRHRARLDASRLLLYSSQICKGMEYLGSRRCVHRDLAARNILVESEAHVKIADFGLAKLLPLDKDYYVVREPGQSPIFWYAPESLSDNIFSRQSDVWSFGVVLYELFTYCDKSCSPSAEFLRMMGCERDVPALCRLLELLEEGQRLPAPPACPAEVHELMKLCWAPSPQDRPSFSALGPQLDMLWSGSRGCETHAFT

As usually defined, the pIC50 is the negative decadic logarithm of the IC50, by convention in mol/L. Regarding `CC(=O)Nc1cccc(Nc2ncc(C(N)=O)c(NC[C@H](C)c3ccccc3)n2)c1` [Example 81, (R)-2-(3-acetamidophenylamino)-4-(2-phenylpropylamino)pyrimidine-5-carboxamide], the negative logarithm of the IC50 (pIC50) was 6.00 to 7.00 on JAK1; 7.00 to 8.00 at JAK2; 7.00 to 8.00 against JAK3; 7.00 to 8.00 against TYK2; less than 6.00 at Syk.

In the case of `CC(=O)Nc1cccc(Nc2ncc(C(N)=O)c(N[C@H](CO)Cc3ccccc3)n2)c1` [Example 76, (S)-2-(3-acetamidophenylamino)-4-(1-hydroxy-3-phenylpropan-2-ylamino)pyrimidine-5-carboxamide], the pIC50 on JAK1 was 6.00 to 7.00; on JAK2, 7.00 to 8.00; on JAK3 it was 7.00 to 8.00; against TYK2, 7.00 to 8.00; against Syk, less than 6.00.

For the molecule `CC(=O)N(C)c1cccc(Nc2ncc(C(N)=O)c(NC(C)C)n2)c1` [Example 77, 4-(isopropylamino)-2-(3-(N-methylacetamido)phenylamino)pyrimidine-5-carboxamide], the pIC50 at JAK1 is 6.00 to 7.00; at JAK2, 7.00 to 8.00; on JAK3 it was 7.00 to 8.00; on TYK2 it was 7.00 to 8.00; against Syk, less than 6.00.

`COC(=O)Nc1cccc(Nc2ncc(C(N)=O)c(NCC(F)(F)F)n2)c1` [Example 4, Methyl 3-(5-carbamoyl-4-(2,2,2-trifluoroethylamino)pyrimidin-2-ylamino)phenylcarbamate]: the pIC50 at JAK1 is 7.00 to 8.00; at JAK2, 7.00 to 8.00; on JAK3, 7.00 to 8.00; against TYK2, 7.00 to 8.00; against Syk, 6.00 to 7.00.

`NC(=O)c1cnc(Nc2cccc(NC(=O)N3CCCC3)c2)nc1NC1CCCC1` [Example 37, 4-(cyclopentylamino)-2-(3-(pyrrolidine-1-carboxamido)phenylamino)pyrimidine-5-carboxamide]: the pIC50 was 7.00 to 8.00 on JAK1; 7.00 to 8.00 against JAK2; 8.00 to 9.00 at JAK3; 8.00 to 9.00 against TYK2; less than 6.00 at Syk.

With `CC(=O)Nc1cccc(Nc2ncc(C(N)=O)c(NCCN3CCOCC3)n2)c1` [Example 80, 2-(3-acetamidophenylamino)-4-(2-morpholinoethylamino)pyrimidine-5-carboxamide], the pIC50 on JAK1 is 6.00 to 7.00; on JAK2 it was 6.00 to 7.00; against JAK3, 7.00 to 8.00; against TYK2, 7.00 to 8.00; at Syk, less than 6.00.

`CC(=O)N(C)c1cccc(Nc2ncc(C(N)=O)c(NCc3ccccc3)n2)c1` [Example 79, 4-(benzylamino)-2-(3-(N-methylacetamido)phenylamino)pyrimidine-5-carboxamide]: the pIC50 on JAK1 is 7.00 to 8.00; against JAK2 it was 7.00 to 8.00; at JAK3, 8.00 to 9.00; against TYK2 it was 7.00 to 8.00; against Syk it was less than 6.00.

Consider `CC(=O)Nc1cccc(Nc2ncc(C(N)=O)c(NCC(=O)N3CCCC3)n2)c1` [Example 65, 2-(3-acetamidophenylamino)-4-(2-oxo-2-(pyrrolidin-1-yl)ethylamino)pyrimidine-5-carboxamide], for which the pIC50 is less than 6.00 at JAK1; 6.00 to 7.00 against JAK2; 7.00 to 8.00 against JAK3; 7.00 to 8.00 against TYK2; less than 6.00 against Syk.

With `CC(=O)N(C)c1cccc(Nc2ncc(C(N)=O)c(NC3CCCC3)n2)c1` [Example 78, 4-(cyclopentylamino)-2-(3-(N-methylacetamido)phenylamino)pyrimidine-5-carboxamide], the negative logarithm of the IC50 (pIC50) on JAK1 is 7.00 to 8.00; on JAK2, 8.00 to 9.00; against JAK3 it was 8.00 to 9.00; against TYK2, 7.00 to 8.00; against Syk, less than 6.00.

As to `COCC(=O)N(C)c1cccc(Nc2ncc(C(N)=O)c(NC(C)C)n2)c1` [Example 88, 4-(isopropylamino)-2-(3-(2-methoxy-N-methylacetamido)phenylamino)pyrimidine-5-carboxamide], the negative logarithm of the IC50 (pIC50) is 7.00 to 8.00 on JAK1; 7.00 to 8.00 against JAK2; 7.00 to 8.00 against JAK3; 7.00 to 8.00 against TYK2; less than 6.00 at Syk.

On to `COCC(=O)N(C)c1cccc(Nc2ncc(C(N)=O)c(N[C@H](C)c3ccccc3)n2)c1` [Example 86, (R)-2-(3-(2-methoxy-N-methylacetamido)phenylamino)-4-(1-phenylethylamino)pyrimidine-5-carboxamide], for which the negative-log IC50 (pIC50) on JAK1 is 6.00 to 7.00; against JAK2 it was 8.00 to 9.00; on JAK3, 8.00 to 9.00; against TYK2 it was 7.00 to 8.00; against Syk, less than 6.00.

In the case of `CC(=O)Nc1cccc(Nc2ncc(C(N)=O)c(NCC(F)(F)F)n2)c1` [Example 7, 2-(3-acetamidophenylamino)-4-(2,2,2-trifluoroethylamino)pyrimidine-5-carboxamide], the pIC50 is 7.00 to 8.00 at JAK1; 7.00 to 8.00 against JAK2; 8.00 to 9.00 against JAK3; 8.00 to 9.00 at TYK2; 6.00 to 7.00 against Syk.

With `NC(=O)c1cnc(Nc2cccc(NC(=O)C3CC3)c2)nc1NCC(F)(F)F` [Example 5, 2-(3-(cyclopropanecarboxamido)phenylamino)-4-(2,2,2-trifluoroethylamino)pyrimidine-5-carboxamide], the pIC50 at JAK1 was 6.00 to 7.00; on JAK2, 6.00 to 7.00; at JAK3, 7.00 to 8.00; on TYK2, 7.00 to 8.00; on Syk it was 6.00 to 7.00.

In the case of `CC(=O)Nc1cccc(Nc2ncc(C(N)=O)c(NC[C@@H](O)CO)n2)c1` [Example 83, (R)-2-(3-acetamidophenylamino)-4-(2,3-dihydroxypropylamino)pyrimidine-5-carboxamide], the pIC50 on JAK1 was 6.00 to 7.00; against JAK2, 6.00 to 7.00; against JAK3, 7.00 to 8.00; at TYK2 it was 7.00 to 8.00; on Syk, less than 6.00.

`COC(CNc1nc(Nc2cccc(NC(C)=O)c2)ncc1C(N)=O)c1ccccc1` (centres unmarked) [Example 84, 2-(3-acetamidophenylamino)-4-(2-methoxy-2-phenylethylamino)pyrimidine-5-carboxamide]: the pIC50 was 7.00 to 8.00 on JAK1; 7.00 to 8.00 against JAK2; 8.00 to 9.00 against JAK3; 7.00 to 8.00 against TYK2; 6.00 to 7.00 against Syk.

For the molecule `CC(=O)N(C)c1cccc(Nc2ncc(C(N)=O)c(N[C@H](C)c3ccccc3)n2)c1` [Example 87, (R)-2-(3-(N-methylacetamido)phenylamino)-4-(1-phenylethylamino)pyrimidine-5-carboxamide], the pIC50 at JAK1 is 6.00 to 7.00; against JAK2, 8.00 to 9.00; against JAK3, 8.00 to 9.00; against TYK2, 7.00 to 8.00; on Syk, less than 6.00.

Regarding `CC(=O)Nc1cccc(Nc2ncc(C(N)=O)c(N[C@@H](C)C(N)=O)n2)c1` [Example 85, (S)-2-(3-acetamidophenylamino)-4-(1-amino-1-oxopropan-2-ylamino)pyrimidine-5-carboxamide], the negative-log IC50 (pIC50) at JAK1 is 6.00 to 7.00; against JAK2 it was 6.00 to 7.00; against JAK3, 7.00 to 8.00; at TYK2, 7.00 to 8.00; at Syk, less than 6.00.

Take `CC(=O)Nc1cccc(Nc2ncc(C(N)=O)c(NC[C@H](C)O)n2)c1` [Example 82, (S)-2-(3-acetamidophenylamino)-4-(2-hydroxypropylamino)pyrimidine-5-carboxamide]: the pIC50 on JAK1 was 6.00 to 7.00; against JAK2, 7.00 to 8.00; against JAK3 it was 7.00 to 8.00; against TYK2 it was 7.00 to 8.00; against Syk it was 6.00 to 7.00.

On to `COCC(=O)N(C)c1cccc(Nc2ncc(C(N)=O)c(NCc3ccccc3)n2)c1` [Example 90, 4-(benzylamino)-2-(3-(2-methoxy-N-methylacetamido)phenylamino)pyrimidine-5-carboxamide], for which the pIC50 at JAK1 is 7.00 to 8.00; on JAK2 it was 7.00 to 8.00; against JAK3, 8.00 to 9.00; at TYK2, 7.00 to 8.00; at Syk it was less than 6.00.

For the molecule `COCC(=O)Nc1cccc(Nc2ncc(C(N)=O)c(NCC(F)(F)F)n2)c1` [Example 6, 2-(3-(2-methoxyacetamido)phenylamino)-4-(2,2,2-trifluoroethylamino)pyrimidine-5-carboxamide], the pIC50 was 7.00 to 8.00 on JAK1; 7.00 to 8.00 against JAK2; 7.00 to 8.00 on JAK3; 7.00 to 8.00 against TYK2; 6.00 to 7.00 at Syk.

As for `CC(=O)Nc1cccc(Nc2ncc(C(N)=O)c(N[C@@H]3CCCNC3)n2)c1` [Example 66, (R)-2-(3-acetamidophenylamino)-4-(piperidin-3-ylamino)pyrimidine-5-carboxamide], the pIC50 is 6.00 to 7.00 at JAK1; 6.00 to 7.00 against JAK2; 6.00 to 7.00 against JAK3; 6.00 to 7.00 against TYK2; less than 6.00 on Syk.

Consider `COCC(=O)N(C)c1cccc(Nc2ncc(C(N)=O)c(NC3CCCC3)n2)c1` [Example 89, 4-(cyclopentylamino)-2-(3-(2-methoxy-N-methylacetamido)phenylamino)pyrimidine-5-carboxamide], for which the pIC50 on JAK1 is 7.00 to 8.00; against JAK2, 8.00 to 9.00; against JAK3 it was 8.00 to 9.00; at TYK2, 7.00 to 8.00; on Syk, less than 6.00.
